Columns and labels:
[1] = test system: ovariectomized (OVX) mice; assay: Ovariectomy + sRANKL osteoporosis mouse model, micro-CT of distal femur; assay type: in vivo; settings: 10 mg/kg i.p. once daily for 2 weeks
Experimental: FIGS. 6A-6E are the data depicting the mouse model of ovariectomy-induced osteoporosis, in which the ovariectomized (OVX) mice are respectively treated with sRANKL (1 mg/Kg) in the absence or presence of MLN4924 (10 mg/Kg) according to example 5.1 of the present disclosure. FIG. 6A: Micro computed-tomography (micro-CT) three-dimensional images of the distal femurs of mice respectively treated with the indicated treatments, in which the left panels represent transaxial plane, and the right panels represent coronal plane. FIGS. 6B-6D: micro-CT measurement of trabecular bone parameters, including bone volume/total volume (FIG. 6B), trabecular number (FIG. 6C), and trabecular space (FIG. 6D). FIG. 6E: Serum level of C-telopeptide of type 1 collagen (CTX-1) in control, OVX, OVX+sRANKL, and OVX+sRANKL+MLN4924 groups. Values are expressed as mean±SD, N=6 per group. *p<0.05; **p<0.01.
All experimental procedures were approved by the Institutional Animal Care and Use Committee of the Chang Gung Memorial Hospital at Chiayi and complied with the Guideline for the Care and Use of Laboratory Animals available through the National Academy of Sciences (IACUC number: 2013100102 and 2015103001). All efforts were made to minimize the suffering of the animals. C57BL/6J female mice (6-8 weeks old; obtained from BioLasco in Taiwan) were operated ovariectomy surgery (OVX). 48 hours later of OVX operation, sRANKL (1 mg/kg) or saline was injected intraperitoneally once daily for two days followed by intraperitoneal injection of MLN4924 (10 mg/kg) once daily for 2 weeks. Mice were sacrificed with CO2 asphyxiation, and the tibias and femurs were isolated therefrom. The tibias were subject to histochemistry assay, and the femurs were subject to bending test and tomographic analysis by MTS (Testresources, Shakopee, Minn.) and Skyscan 1272 (Bruker, Kontich, Belgium), respectively. Serum levels of cross linked C-telopeptide of type I collagen (CTX-1) (CEA665Mu) was measured by specific ELISA kit (USCN life science incorporation, Wuhan, Hubei, China).
The mice were first treated with specified treatments before subjecting to micro-computed tomography (pCT).
The effect of MLN4924 on trabecular bone parameters, including the bone volume/total tissue volume, trabecular number, and trabecular space in bone loss mice were then investigated, and results are presented in FIGS. 6B to 6D.

RAW264.7 cells = assay type: cell-based, mouse
Experimental: FIGS. 2A-2D are data collected from RAW264.7 cells respectively incubated in the medium containing sRANKL (50 ng/ml) and specified concentrations of MLN4924 for 7 days according to example 1.2 of the present disclosure. FIG. 2A: the photographs of TRAP staining depicting the differentiation of osteoclasts from RAW264.7 cells. FIG. 2B: after the differentiation of osteoclasts in Corning Osteo Surface, the cells were removed, and the resorbed areas for confirming osteoclast activity were analyzed by 1% toluidine blue staining. FIG. 2C: the culture medium is subject to Biovision Cathepsin K Activity Fluorometric Assay Kit for the analysis of cathepsin K activity. FIG. 2D: the effect of effective doses of MLN4924 on the viability of RAW264.7 cells is evaluated by MTT assay. Scale bar represents 100 μm. Data are expressed as mean±SD where *p<0.05.
In addition to BMMs, the effect of MLN4924 on macrophage cell line RAW264.7 cells was also investigated. The RAW264.7 cells were cultured in the medium containing sRANKL and MLN4924 for 7 days, then subjected to osteoclast formation evaluation by TRAP staining.

P38 (pP38) = assay: Western blot, sRANKL-induced P38 phosphorylation in RAW264.7 cells; assay type: cell-based, mouse; settings: RAW264.7, 30 min pre-treatment, sRANKL 50 ng/ml, FIG. 3A-3B
Experimental: FIGS. 3A-3D are data collected from Western blot analysis that respectively depict the expression of specified protein extracted from the RAW264.7 cells, which are pre-treated with specified concentrations of MLN4924 for 30 minutes followed by the stimulation of sRANKL (50 ng/ml) according to example 2 of the present disclosure. FIG. 3A: the time course effect of MLN4924 on the phosphorylations of ERK (pERK), P38 (pP38) and JNK (pJNK). FIG. 3B: the dose effect of MLN4924 on the phosphorylations of ERK (pERK), P38 (pP38) and JNK (pJNK). FIG. 3C: the time course effect of MLN4924 on the expression of NFATc-1. FIG. 3D: the dose effect of MLN4924 on the expression of NFATc-1. Mock: untreated control; R: sRANKL; M: MLN4924.
The RAW264.7 cells were starved with serum-free medium for six hours and then treated with the specified treatments. At indicated time points, the cells were washed with cold phosphate-buffered saline (PBS) and lysed in RIPA buffer containing complete protease inhibitor cocktail (Roche). The cell lysates were separated by SDS-PAGE followed by Western blotting with the indicated antibodies, including NEDD8, APPBP1, UBA3.
Specifically, the inhibitory effect increased with an increase in the MLN4924 concentration (FIG. 3B).

SMILES: NS(=O)(=O)OC[C@@H]1C[C@@H](n2ccc3c(N[C@H]4CCc5ccccc54)ncnc32)C[C@@H]1O [MLN4924, (1S,2S,4R)-4-(4-((1S)-2,3-Dihydro-1H-inden-1-ylamino)-7H-pyrrolo(2,3-d)pyrimidin-7-yl)-2-hydroxycyclopentyl) methyl sulphamate]
- trabecular bone loss at distal femoral metaphysis (micro-CT images) ([1]; FIG. 6A): could rescue the trabecular bone loss caused by OVX+sRANKL treatment
- bone volume/total tissue volume ([1]; vs OVX+sRANKL group, FIG. 6B): significantly rescued the sRANKL-mediated trabecular bone loss
- trabecular number ([1]; vs OVX+sRANKL group, FIG. 6C): significantly rescued the sRANKL-mediated trabecular bone loss
- trabecular space ([1]; vs OVX+sRANKL group, FIG. 6D): significantly rescued the sRANKL-mediated trabecular bone loss
- cell viability of RAW264.7 cells (RAW264.7 cells): did not affect cell viability
- sRANKL-upregulated phosphorylation of P38 (pP38) (P38 (pP38)): inhibited

From US10285994B2, “Method of preventing or treating osteoporosis by neddylation inhibitor” (Chang Gung University, priority 2017, dated 2019)
